Assay results reported in patent US12227520B2 (priority 2019, dated 2025).
Like-named read-outs stand apart in the source and are kept apart here.

How the values were obtained:
pLai RLuc reporter virus = assay: microbe, parasite or virus in culture; assay type: cell-based, HIV; settings: Human immunodeficiency virus 1, 72 h
Experimental: To quantify the amount of protein binding to human serum, compounds were serially diluted (1:3) in DMSO and acoustically transferred onto 384-well assay plates via a Labcyte ECHO robot. Each plate contained up to 8 test compounds, including negative and positive controls, (DMSO, 5 μM AZT respectively). Assay plates were prepared in duplicate, and tested in either CCM (cell culture media) or HS/CCM (human serum/cell culture media). MT-4 cells were first pre-infected with pLai RLuc reporter virus for 2 h at 37° C., then further diluted in either CCM (RPMI media, 10% FBS, 1% P/S) or HS/CCM (RPMI media, 10% FBS, 50% HS, 1% P/S), and subsequently added to each plate using a Biotek Micro Flow dispenser. After a 72-h incubation in a humidified and temperature controlled incubator (37° C.), Renilla Glo (Promega) was added to all assay plates and chemiluminescence read using an Envision plate-reader. […] To determine the amount of protein binding, EC50 fold shifts (or EC50 shifts) were calculated by dividing EC50 (HS/CCM)/EC50 (CCM).

[1] = Cytotoxicity assay in MT-4 cells; assay type: cell-based, human; settings: human, uninfected MT-4 cells, 5 days incubation; read-out: CC50
Outline: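 Infected MT-4 cells (HIV-1 IIIB, fresh 1:250 dilution of concentrated stock) or mock-infected cells exposed to compounds for 5 days at 37 °C. Viability by CellTiter-Glo luminescence; 5 μM AZT positive control, no-drug negative control. Uninfected cells used for cytotoxicity, with 10 μM puromycin as base-level cytotoxicity control.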

HIV-1 (IIIB) = assay: Antiviral assay in MT-4 cells (HIV MT-4 antiviral assay); assay type: cell-based; settings: Human immunodeficiency virus 1, IIIB, MT4, 120 h, HIV-1 (IIIB) in MT-4 cells, 5 days incubation
Outline: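 MT-4 cells infected with HIV-1 IIIB (1:250 diluted stock) and exposed to 1:3 serially diluted compound in RPMI with 10% FBS. Viability read by CellTiter-Glo luminescence after 5 days at 37° C; mock-infected cells and 5 μM AZT as controls.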

[2] = read-out: Antiviral Serum Shift RLuc 50% HS, HS/CCM (RPMI media, 10% FBS, 50% HS, 1% P/S), 72-h incubation
[3] = read-out: Antiviral Serum Shift RLuc CCM, CCM (RPMI media, 10% FBS, 1% P/S), 72-h incubation

| Compound | EC50 (pLai RLuc reporter virus; [2]) [nM] | EC50 (pLai RLuc reporter virus; [3]) [nM] | CC50 at 5 days [1] [µM] | EC50 (HIV-1 (IIIB); read-out: EC50) [nM] | EC50 (HIV-1 (IIIB)) [nM] |
| --- | --- | --- | --- | --- | --- |
| O=C(NCc1c(F)cc(F)cc1F)c1cn2c(c(O)c1=O)C(=O)N1CC[C@@H](F)C[C@H]2C1 [Example 73-1, (5R,7S)-5-fluoro-12-hydroxy-1,11-dioxo-N-(2,4,6-trifluorobenzyl)-1,4,5,6,7,11-hexahydro-3H-2,7-methanopyrido[1,2-a][1,4]diazonine-10-carboxamide] | 0.897 | 0.715 | > 50 | 5.2 | – |
| O=C(NCc1ccc(F)cc1F)c1cn2c(c(O)c1=O)C(=O)N1CC3CC3CC2C1 (single isomer, unassigned) [Example 42-1, N-(2,4-difluorobenzyl)-5-hydroxy-4,6-dioxo-1,1a,2,4,6,10,11,11a-octahydro-3,10-methanocyclopropa[f]pyrido[1,2-a][1,4]diazonine-7-carboxamide] | 1.34 | 0.28 | 7.49 | 1.6 | – |
| C[C@@H]1[C@H]2CCCCN1C(=O)c1c(O)c(=O)c(C(=O)NCc3ccc(F)cc3F)cn12 [Example 7, (7R,13R)—N-(2,4-difluorobenzyl)-12-hydroxy-13-methyl-1,11-dioxo-1,4,5,6,7,11-hexahydro-3H-2,7-methanopyrido[1,2-a][1,4]diazonine-10-carboxamide] | 1.47 | 0.28 | 8.81 | 1.4 | – |
| O=C(NCc1ccc(F)cc1F)c1cn2c(c(O)c1=O)C(=O)N1CCCCC[C@H]2C1 [Example 5-2, (8S)—N-(2,4-difluorobenzyl)-13-hydroxy-1,12-dioxo-1,3,4,5,6,7,8,12-octahydro-2,8-methanopyrido[1,2-a][1,4]diazecine-11-carboxamide] | 142 | 0.72 | 19.5 | 2.9 | – |
| O=C(NCc1c(F)cc(F)cc1F)c1cn2c(c(O)c1=O)C(=O)N1C[C@@H]2CCC[C@@H]1CF [Example 164, (3R,7S)-3-(fluoromethyl)-12-hydroxy-1,11-dioxo-N-(2,4,6-trifluorobenzyl)-1,4,5,6,7,11-hexahydro-3H-2,7-methanopyrido[1,2-a][1,4]diazonine-10-carboxamide] | 13.3 | 0.333 | 10.4 | 1.21 | – |
| C[C@@H]1CO[C@H](C)[C@H]2CN1C(=O)c1c(O)c(=O)c(C(=O)NCc3ccc(F)cc3F)cn12 [Example 197, (3R,6R,7R)—N-(2,4-difluorobenzyl)-12-hydroxy-3,6-dimethyl-1,11-dioxo-1,3,4,6,7,11-hexahydro-2,7-methanopyrido[1,2-d][1,4,7]oxadiazonine-10-carboxamide] | 8.35 | 0.589 | 22.4 | 1.49 | – |
| O=C(NCc1ccc(F)cc1F)c1cn2c(c(O)c1=O)C(=O)N1CCc3cc(F)c(F)cc3[C@H]2C1 (single isomer, unassigned) [Example 111-1] | 7.12 | 0.447 | 5.91 | 2.01 | – |
| C[C@H]1C=C[C@H](C)N2C[C@H]1n1cc(C(=O)NCc3c(F)cc(F)cc3F)c(=O)c(O)c1C2=O [Example 183, (3S,6S,7S)-12-hydroxy-3,6-dimethyl-1,11-dioxo-N-(2,4,6-trifluorobenzyl)-1,6,7,11-tetrahydro-3H-2,7-methanopyrido[1,2-a][1,4]diazonine-10-carboxamide] | 5.71 | 0.262 | 10.5 | 0.869 | – |
| O=C(NCc1ccc(F)cc1F)c1cn2c(c(O)c1=O)C(=O)N1CC=CC[C@@H]2C1 [Example 47-1, (7R)—N-(2,4-difluorobenzyl)-12-hydroxy-1,11-dioxo-1,6,7,11-tetrahydro-3H-2,7-methanopyrido[1,2-a][1,4]diazonine-10-carboxamide] | 25.7 | 0.682 | 11.1 | 4.93 | – |
| O=C(NCc1c(F)cc(F)cc1F)c1cn2c(c(O)c1=O)C(=O)N1CC[C@@H](O)CC[C@H]2C1 [Example 83-1, (5S,8S)-5,13-dihydroxy-1,12-dioxo-N-(2,4,6-trifluorobenzyl)-1,3,4,5,6,7,8,12-octahydro-2,8-methanopyrido[1,2-a][1,4]diazecine-11-carboxamide] | 7.08 | 8.19 | > 50 | 39 | – |
| O=C(NCc1c(F)cc(F)cc1F)c1cn2c(c(O)c1=O)C(=O)N1CCC[C@H](F)[C@H]2C1 [Example 15-2, (6S, 7R)-6-fluoro-12-hydroxy-1,11-dioxo-N-(2,4,6-trifluorobenzyl)-1,4,5,6,7,11-hexahydro-3H-2,7-methanopyrido[1,2-a][1,4]diazonine-10-carboxamide] | 4.32 | 0.29 | 15.3 | 1.4 | – |
| C[C@]12CCCCN(C1)C(=O)c1c(O)c(=O)c(C(=O)NCc3ccc(F)cc3F)cn12 [Example 173, (7S)—N-(2,4-difluorobenzyl)-12-hydroxy-7-methyl-1,11-dioxo-1,4,5,6,7,11-hexahydro-3H-2,7-methanopyrido[1,2-a][1,4]diazonine-10-carboxamide] | 13.9 | 0.363 | 12.5 | 1.24 | – |
| O=C(NCc1c(F)cc(F)cc1F)c1cn2c(c(O)c1=O)C(=O)N1CC[C@@H](F)CC[C@H]2C1 [Example 81-2, (5S,8S)-5-fluoro-13-hydroxy-1,12-dioxo-N-(2,4,6-trifluorobenzyl)-1,3,4,5,6,7,8,12-octahydro-2,8-methanopyrido[1,2-a][1,4]diazecine-11-carboxamide] | 0.737 | 0.304 | 11.2 | 1.35 | – |
| O=C(NCc1ccc(F)cc1F)c1cn2c(c(O)c1=O)C(=O)N1Cc3ccccc3C[C@H]2C1 [Example 71, (6S)—N-(2,4-difluorobenzyl)-1-hydroxy-2,14-dioxo-2,7,12,14-tetrahydro-6H-6,13-methanobenzo[f]pyrido[1,2-a][1,4]diazonine-3-carboxamide] | 1.66 | 0.302 | 15 | 2.14 | – |
| O=C(NCc1c(F)cc(F)cc1F)c1cn2c(c(O)c1=O)C(=O)N1CCC=C(F)[C@@H]2C1 (single isomer, unassigned) [Example 75-1] | 298 | 0.595 | 15.1 | 3.76 | – |
| O=C(NCc1ccc(F)cc1F)c1cn2c(c(O)c1=O)C(=O)N1C[C@@H](F)CC[C@@H]2C1 (single isomer, unassigned) [Example 53-3] | 75.2 | 0.223 | 11.2 | 1.94 | – |
| C[C@@]12CN(CCc3cc(F)c(F)cc31)C(=O)c1c(O)c(=O)c(C(=O)NCc3c(F)cc(F)cc3F)cn12 (single isomer, unassigned) [Example 120-1] | 4.96 | 0.371 | 8.99 | 3.54 | – |
| O=C(NCc1ccc(F)c(Cl)c1F)c1cn2c(c(O)c1=O)C(=O)N1CC2CCc2cc(F)ccc21 (stereo not drawn) [Example 68, N-(3-chloro-2,4-difluorobenzyl)-2-fluoro-7-hydroxy-6,8-dioxo-6,8,13,14-tetrahydro-12H-5,12-methanobenzo[e]pyrido[1,2-a][1,4]diazonine-9-carboxamide] | 1.17 | 0.279 | 3.58 | 1.2 | – |
| C[C@]12Cc3cc(F)c(F)cc3CN(C1)C(=O)c1c(O)c(=O)c(C(=O)NCc3c(F)cc(F)cc3F)cn12 (single isomer, unassigned) [Example 191-2] | 1.93 | 0.361 | 11.8 | 1.44 | – |
| C[C@H]1[C@@H]2CCCCN1C(=O)c1c(O)c(=O)c(C(=O)NCc3c(F)cc(F)cc3F)cn12 [Example 8, (7S, 13S)-12-hydroxy-13-methyl-1,11-dioxo-N-(2,4,6-trifluorobenzyl)-1,4,5,6,7,11-hexahydro-3H-2,7-methanopyrido[1,2-a][1,4]diazonine-10-carboxamide] | 1.41 | 0.41 | 20.8 | – | 1.5 |
| O=C(NCc1ccc(F)cc1F)c1cn2c(c(O)c1=O)C(=O)N1Cc3ccc(Cl)cc3C[C@H]2C1 (single isomer, unassigned) [Example 128-1] | 7.61 | 0.763 | > 47.2 | 2.15 | – |
